# Key:
# [1] = target: T1, APEH recombinantly expressed in HEK-293 cells (Mus musculus, UniProt Q8R146); assay: APEH exopeptidase assay with synthetic N-acetylated hexapeptides (LC-MS); format: biochemical; conditions: 3 nM, 30 min pre-treatment
# T1 construct: full-length cDNAs encoding mouse serine hydrolases were either transfected directly; host or cells: HEK-293
# Protocol: Enzyme assays were performed with LC-MS by monitoring the release of the N-terminal N-acetyl amino acid. APEH was transiently overexpressed in HEK-293 cells and whole cell lysates were treated with DMSO or 3 nM AA74-1 for 30 minutes and adjusted to a final protein concentration of about 0.3 mg/mL with PBS buffer. For each reaction, about 200 μM of hexapeptide were incubated with lysates for 10 h at 37° C. before quenching with 0.8 mL MeOH. Samples were centrifuged for 10 minutes at 10,000×g at 4° C. and the supernatant was dried down under vacuum. For LC-MS analysis samples were injected into an Agilent 1100 LC-MSD SL instrument applying the following gradient: Buffer A (MeCN) to Buffer B (95:5 H2O/MeCN+50 mM NH4OAc+0.2% NH4OH). Data represent the average±s.d. for three experiments.
# Enzyme assays were performed with LC-MS by monitoring the formation of free N-acetyl amino acid. Mouse APEH was recombinantly expressed in HEK-293 cells and whole cell lysates of overexpressed APEH (or mock) were pre-treated with DMSO or 3 nM AA74-1 for 30 minutes and adjusted to a final protein concentration of 0.3 mg/mL with PBS buffer. For each reaction 200 μM of hexapeptide substrate were incubated with lysates in 200 μL total reaction volume. Reactions were incubated for 10 h at 37° C. before quenching with 0.8 mL MeOH. […]
# [2] = target: T2, acetylcholinesterase (ACHE) (Mus musculus, UniProt P21836); assay: Competitive ABPP of ACHE recombinantly expressed in COS-7 cells; format: biochemical; conditions: 30 minutes at 37° C.
# T2 construct: full-length cDNAs encoding mouse serine hydrolases were either transfected directly; host or cells: COS-7 cells
# T2 sequence (P21836 32-614): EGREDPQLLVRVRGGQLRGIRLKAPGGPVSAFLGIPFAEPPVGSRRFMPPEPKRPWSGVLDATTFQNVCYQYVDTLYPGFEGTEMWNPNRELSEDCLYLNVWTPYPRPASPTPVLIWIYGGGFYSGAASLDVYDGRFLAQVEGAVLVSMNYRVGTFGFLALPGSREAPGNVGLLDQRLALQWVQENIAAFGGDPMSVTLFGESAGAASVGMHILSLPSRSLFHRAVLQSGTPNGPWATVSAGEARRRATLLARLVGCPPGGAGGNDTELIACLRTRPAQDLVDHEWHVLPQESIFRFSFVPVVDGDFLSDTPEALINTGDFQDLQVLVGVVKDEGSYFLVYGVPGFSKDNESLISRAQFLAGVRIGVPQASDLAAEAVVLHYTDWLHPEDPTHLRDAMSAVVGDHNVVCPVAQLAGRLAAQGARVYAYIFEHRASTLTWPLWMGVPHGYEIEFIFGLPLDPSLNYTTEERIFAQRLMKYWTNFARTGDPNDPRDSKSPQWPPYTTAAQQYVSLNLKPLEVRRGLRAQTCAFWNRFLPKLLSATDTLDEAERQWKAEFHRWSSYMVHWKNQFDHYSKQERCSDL
# Protocol: ACHE was recombinantly expressed in COS-7 cells. Whole cell proteome was mixed 1:1 with soluble mouse brain proteome and treated with DMSO or AA74-1 in vitro at indicated concentrations for 30 minutes at 37° C., after which the samples were analyzed by competitive ABPP. Note that ACHE migrates as multiple bands by SDS-PAGE due to heterogeneous glycosylation. ACHE inhibition in vivo was not observed, as reflected by the equal signals for this enzyme in competitive ABPP results shown in FIG. 5b.
# Briefly, full-length cDNAs encoding mouse serine hydrolases were either transfected directly (if available in a eukaryotic expression vector) or subcloned into pcDNA3 (Invitrogen). COS-7 or HEK-293 cells were grown to about 70% confluence in 10 cm dishes in complete medium (DMEM with L-glutamine, nonessential amino acids, sodium pyruvate, and FCS) at 37° C. and 5% CO2. The cells were transiently transfected by using the appropriate cDNA or empty vector control (“mock”) and the FUGENE® 6 (Roche Applied Science) transfection reagents following the manufacturers' protocols. After 48 hrs, the cells were washed twice with phosphate-buffered saline (PBS), and collected by scraping.
# [3] = target: T3, human APEH (Homo sapiens, UniProt P13798); assay: Competitive ABPP, soluble fractions of human cancer cells; format: biochemical
# T3 construct: endogenous in cells; host or cells: SKOV3, C8161, MDA-MB-231 (soluble fractions)
# T3 sequence (P13798 whole entry): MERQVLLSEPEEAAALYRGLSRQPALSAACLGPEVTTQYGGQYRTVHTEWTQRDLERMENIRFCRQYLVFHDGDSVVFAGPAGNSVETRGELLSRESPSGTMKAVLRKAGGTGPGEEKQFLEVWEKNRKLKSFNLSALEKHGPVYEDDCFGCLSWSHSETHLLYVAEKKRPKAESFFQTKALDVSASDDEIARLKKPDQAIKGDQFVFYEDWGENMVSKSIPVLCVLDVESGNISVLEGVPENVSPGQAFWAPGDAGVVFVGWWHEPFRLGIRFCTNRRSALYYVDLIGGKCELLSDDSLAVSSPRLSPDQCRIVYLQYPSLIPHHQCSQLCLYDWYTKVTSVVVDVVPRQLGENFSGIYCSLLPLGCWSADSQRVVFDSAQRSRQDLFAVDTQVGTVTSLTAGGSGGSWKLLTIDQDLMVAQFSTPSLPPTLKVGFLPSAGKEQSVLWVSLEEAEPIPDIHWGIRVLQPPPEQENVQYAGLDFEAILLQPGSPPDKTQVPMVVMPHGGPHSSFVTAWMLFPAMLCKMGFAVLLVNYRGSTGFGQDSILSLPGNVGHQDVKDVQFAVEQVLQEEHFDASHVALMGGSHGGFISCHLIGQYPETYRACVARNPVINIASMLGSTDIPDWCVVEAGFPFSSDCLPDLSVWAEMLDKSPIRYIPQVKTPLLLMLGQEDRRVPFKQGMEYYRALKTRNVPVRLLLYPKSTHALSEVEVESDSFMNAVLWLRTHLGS
# Protocol: The soluble fractions of human ovarian (SKOV3), melanoma (C8161), and breast (MDA-MB-231) cancer cells, as well as rat neuroblastoma (B103) cells were treated with 30 nM AA74-1 or DMSO for 30 minutes at 37° C., after which the samples were analyzed by competitive ABPP. Inhibited APEH is highlighted with boxes. Note that other SHs detected in human and mouse proteomes were not inhibited by AA74-1.
# [4] = target: T4, APEH (Mus musculus, UniProt Q8R146); assay: Fluorogenic APEH substrate assay on brain proteomes of treated mice; format: in vivo; conditions: 0.4 mg/kg; brain proteome
# T4 sequence (Q8R146 1-732): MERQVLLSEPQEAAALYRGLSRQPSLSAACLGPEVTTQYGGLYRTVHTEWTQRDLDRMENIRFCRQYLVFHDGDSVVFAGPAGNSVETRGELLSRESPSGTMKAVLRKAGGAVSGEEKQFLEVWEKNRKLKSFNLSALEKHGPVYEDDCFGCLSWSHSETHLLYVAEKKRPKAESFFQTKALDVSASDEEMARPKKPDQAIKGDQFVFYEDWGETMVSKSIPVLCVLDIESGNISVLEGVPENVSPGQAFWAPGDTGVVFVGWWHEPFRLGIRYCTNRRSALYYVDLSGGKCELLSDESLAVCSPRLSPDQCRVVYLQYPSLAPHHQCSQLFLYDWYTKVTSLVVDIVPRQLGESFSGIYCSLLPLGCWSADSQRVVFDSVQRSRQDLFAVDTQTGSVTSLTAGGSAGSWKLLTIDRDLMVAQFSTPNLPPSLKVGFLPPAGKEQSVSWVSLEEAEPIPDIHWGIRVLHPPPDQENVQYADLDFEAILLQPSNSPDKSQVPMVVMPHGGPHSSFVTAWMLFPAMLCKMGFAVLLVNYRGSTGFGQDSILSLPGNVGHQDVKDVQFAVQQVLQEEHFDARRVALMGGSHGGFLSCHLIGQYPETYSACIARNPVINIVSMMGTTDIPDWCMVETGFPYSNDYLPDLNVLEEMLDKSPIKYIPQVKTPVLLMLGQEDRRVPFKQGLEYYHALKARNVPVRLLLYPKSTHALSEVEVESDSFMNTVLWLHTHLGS
# Protocol: APEH activity assay was performed using fluorogenic substrate N-Acetyl-L-alanine p-nitroanilide.
# Soluble brain proteomes (100 μL of 1 mg/mL protein) from AA74-1 (or vehicle)-injected mice were treated in a 96-well plate with N-acetyl-L-alanine 4-nitroanilide (100 μM final concentration) and the samples were incubated for 2 h at 37° C. Relative absorbance was measured with a plate reader at […]. Inhibition curves were generated using PRISM® software (GraphPad). Calculated values represent means±s.e.m for three independent experiments.
compound,measurement,setting,value
CC(C)CC(O)(CC(C)C)c1cnn(C(=O)N2CCCC2)n1 [AA74-1],cleavage of N-terminally acetylated residue by APEH-transfected cells,[1],blocked
same,ACHE inhibition in transfected cell proteome,[2],not inhibited
same,IC50,[3],0.011 µM
same,APEH inhibition by substrate assay,[4],Complete inhibition of APEH

# — patent publication US9108930B2, “N1- and N2-carbamoyl-1,2,3-triazole serine hydrolase inhibitors and methods” (The Scripps Research Institute, priority 2011, dated 2015)
